Source: the supplement of paper PMC10307832

Assays:
Assay in all cases: relative viability (nuclei count vs DMSO), 5 days (fraction); higher = more cells survive
RERF-LC-KJ = test system: RERF-LC-KJ
How it was run: (§1)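 Values are medians from duplicate plates. Each reflects relative viability, defined as the nuclei count of treated wells over that of vehicle wells. Lung cancer cell lines in 1536-well plates were pin-tool dosed one day after seeding with one drug alone or with a fixed anchor-drug dose plus five library-drug doses (not always all listed) in √10 steps, then fixed, stained and imaged at 4× after 5 days.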

EBC-1 = test system: EBC-1
How it was run: as §1

NCI-H520 = test system: NCI-H520
How it was run: as §1

NCI-H1651 = test system: NCI-H1651
How it was run: as §1

Calu-6 = test system: Calu-6
How it was run: as §1

A549 = test system: A549
How it was run: as §1

IA-LM = test system: IA-LM
How it was run: as §1

NCI-H1299 = test system: NCI-H1299
How it was run: as §1

NCI-H1703 = test system: NCI-H1703
How it was run: as §1

## CC1(C)CCC(c2ccc(Cl)cc2)=C(CN2CCN(c3ccc(C(=O)NS(=O)(=O)c4ccc(N[C@H](CCN5CCOCC5)CSc5ccccc5)c(S(=O)(=O)C(F)(F)F)c4)cc3)CC2)C1 [Navitoclax] + Cc1nc(NC(=O)N2CCC[C@H]2C(N)=O)sc1-c1ccnc(C(C)(C)C(F)(F)F)c1 [Alpelisib] (partner 2 µM)
RERF-LC-KJ; first compound 0.005 µM
  relative viability: 0.794
RERF-LC-KJ; first compound 0.01581 µM
  relative viability: 0.839
RERF-LC-KJ; first compound 0.05 µM
  relative viability: 0.765
RERF-LC-KJ; first compound 0.1581 µM
  relative viability: 0.75
RERF-LC-KJ; first compound 0.5 µM
  relative viability: 0.793
EBC-1; first compound 0.005 µM
  relative viability: 0.781
EBC-1; first compound 0.01581 µM
  relative viability: 1.13
EBC-1; first compound 0.05 µM
  relative viability: 0.928
EBC-1; first compound 0.1581 µM
  relative viability: 0.829
EBC-1; first compound 0.5 µM
  relative viability: 0.592
NCI-H520; first compound 0.005 µM
  relative viability: 0.915
NCI-H520; first compound 0.01581 µM
  relative viability: 0.892
NCI-H520; first compound 0.05 µM
  relative viability: 0.981
NCI-H520; first compound 0.1581 µM
  relative viability: 0.892
NCI-H520; first compound 0.5 µM
  relative viability: 0.982
NCI-H1651; first compound 0.005 µM
  relative viability: 0.929
NCI-H1651; first compound 0.01581 µM
  relative viability: 0.899
NCI-H1651; first compound 0.1581 µM
  relative viability: 1
NCI-H1651; first compound 0.5 µM
  relative viability: 0.946
Calu-6; first compound 0.005 µM
  relative viability: 0.973
Calu-6; first compound 0.01581 µM
  relative viability: 1.08
Calu-6; first compound 0.05 µM
  relative viability: 0.943
Calu-6; first compound 0.1581 µM
  relative viability: 0.875
Calu-6; first compound 0.5 µM
  relative viability: 0.938
A549; first compound 0.005 µM
  relative viability: 0.774
A549; first compound 0.01581 µM
  relative viability: 0.932
A549; first compound 0.05 µM
  relative viability: 0.922
A549; first compound 0.1581 µM
  relative viability: 0.803
A549; first compound 0.5 µM
  relative viability: 0.778
IA-LM; first compound 0.005 µM
  relative viability: 0.69
IA-LM; first compound 0.01581 µM
  relative viability: 0.986
IA-LM; first compound 0.05 µM
  relative viability: 0.737
IA-LM; first compound 0.1581 µM
  relative viability: 0.792
IA-LM; first compound 0.5 µM
  relative viability: 0.833
NCI-H1299; first compound 0.005 µM
  relative viability: 1.01
NCI-H1299; first compound 0.01581 µM
  relative viability: 1.09
NCI-H1299; first compound 0.05 µM
  relative viability: 1.11
NCI-H1299; first compound 0.1581 µM
  relative viability: 1.06
NCI-H1299; first compound 0.5 µM
  relative viability: 1.03
NCI-H1703; first compound 0.005 µM
  relative viability: 0.308
NCI-H1703; first compound 0.01581 µM
  relative viability: 0.406
NCI-H1703; first compound 0.05 µM
  relative viability: 0.425
NCI-H1703; first compound 0.1581 µM
  relative viability: 0.457
NCI-H1703; first compound 0.5 µM
  relative viability: 0.336

## Oc1nc(-c2ccc(C(F)(F)F)cc2)nc2c1CSCC2 [XAV939] + CS(=O)(=O)CCNCc1ccc(-c2ccc3ncnc(Nc4ccc(OCc5cccc(F)c5)c(Cl)c4)c3c2)o1 [Lapatinib] (partner 2 µM)
RERF-LC-KJ; first compound 0.08 µM
  relative viability: 0.833
RERF-LC-KJ; first compound 0.253 µM
  relative viability: 0.702
RERF-LC-KJ; first compound 0.8 µM
  relative viability: 0.672
RERF-LC-KJ; first compound 2.53 µM
  relative viability: 0.609
EBC-1; first compound 0.08 µM
  relative viability: 0.206
EBC-1; first compound 0.253 µM
  relative viability: 0.205
EBC-1; first compound 0.8 µM
  relative viability: 0.218
EBC-1; first compound 2.53 µM
  relative viability: 0.209
NCI-H520; first compound 0.08 µM
  relative viability: 0.83
NCI-H520; first compound 0.253 µM
  relative viability: 0.78
NCI-H520; first compound 0.8 µM
  relative viability: 0.792
NCI-H520; first compound 2.53 µM
  relative viability: 0.682
NCI-H1651; first compound 0.08 µM
  relative viability: 0.822
NCI-H1651; first compound 0.253 µM
  relative viability: 0.758
NCI-H1651; first compound 0.8 µM
  relative viability: 0.904
NCI-H1651; first compound 2.53 µM
  relative viability: 0.857
Calu-6; first compound 0.08 µM
  relative viability: 1.08
Calu-6; first compound 0.253 µM
  relative viability: 0.945
Calu-6; first compound 0.8 µM
  relative viability: 0.991
Calu-6; first compound 2.53 µM
  relative viability: 0.903
A549; first compound 0.08 µM
  relative viability: 1.1
A549; first compound 0.253 µM
  relative viability: 0.985
A549; first compound 0.8 µM
  relative viability: 0.897
A549; first compound 2.53 µM
  relative viability: 0.765
IA-LM; first compound 0.08 µM
  relative viability: 0.901
IA-LM; first compound 0.253 µM
  relative viability: 0.64
IA-LM; first compound 0.8 µM
  relative viability: 0.687
IA-LM; first compound 2.53 µM
  relative viability: 0.483
NCI-H1299; first compound 0.08 µM
  relative viability: 0.989
NCI-H1299; first compound 0.253 µM
  relative viability: 1.01
NCI-H1299; first compound 0.8 µM
  relative viability: 0.962
NCI-H1299; first compound 2.53 µM
  relative viability: 0.97
NCI-H1703; first compound 0.08 µM
  relative viability: 1.21
NCI-H1703; first compound 0.253 µM
  relative viability: 1.08
NCI-H1703; first compound 0.8 µM
  relative viability: 1.15
NCI-H1703; first compound 2.53 µM
  relative viability: 0.959

## Oc1nc(-c2ccc(C(F)(F)F)cc2)nc2c1CSCC2 [XAV939] + CS(=O)(=O)N1CCN(Cc2cc3nc(-c4cccc5[nH]ncc45)nc(N4CCOCC4)c3s2)CC1 [Pictilisib] (partner 1 µM)
RERF-LC-KJ; first compound 0.08 µM
  relative viability: 0.61
RERF-LC-KJ; first compound 0.253 µM
  relative viability: 0.457
RERF-LC-KJ; first compound 0.8 µM
  relative viability: 0.419
RERF-LC-KJ; first compound 2.53 µM
  relative viability: 0.366
EBC-1; first compound 0.08 µM
  relative viability: 0.437
EBC-1; first compound 0.253 µM
  relative viability: 0.346
EBC-1; first compound 0.8 µM
  relative viability: 0.329
EBC-1; first compound 2.53 µM
  relative viability: 0.261
NCI-H520; first compound 0.08 µM
  relative viability: 0.24
NCI-H520; first compound 0.253 µM
  relative viability: 0.251
NCI-H520; first compound 0.8 µM
  relative viability: 0.236
NCI-H520; first compound 2.53 µM
  relative viability: 0.227
NCI-H1651; first compound 0.08 µM
  relative viability: 0.569
NCI-H1651; first compound 0.253 µM
  relative viability: 0.454
NCI-H1651; first compound 0.8 µM
  relative viability: 0.53
NCI-H1651; first compound 2.53 µM
  relative viability: 0.638
Calu-6; first compound 0.08 µM
  relative viability: 1.09
Calu-6; first compound 0.253 µM
  relative viability: 0.843
Calu-6; first compound 0.8 µM
  relative viability: 0.972
Calu-6; first compound 2.53 µM
  relative viability: 0.841
A549; first compound 0.08 µM
  relative viability: 0.629
A549; first compound 0.253 µM
  relative viability: 0.491
A549; first compound 0.8 µM
  relative viability: 0.372
A549; first compound 2.53 µM
  relative viability: 0.296
IA-LM; first compound 0.08 µM
  relative viability: 0.449
IA-LM; first compound 0.253 µM
  relative viability: 0.317
IA-LM; first compound 0.8 µM
  relative viability: 0.245
IA-LM; first compound 2.53 µM
  relative viability: 0.17
NCI-H1299; first compound 0.08 µM
  relative viability: 0.857
NCI-H1299; first compound 0.253 µM
  relative viability: 0.701
NCI-H1299; first compound 0.8 µM
  relative viability: 0.642
NCI-H1299; first compound 2.53 µM
  relative viability: 0.511
NCI-H1703; first compound 0.08 µM
  relative viability: 0.275
NCI-H1703; first compound 0.253 µM
  relative viability: 0.243
NCI-H1703; first compound 0.8 µM
  relative viability: 0.258
NCI-H1703; first compound 2.53 µM
  relative viability: 0.241
